# What was measured:
# [1] = Bioavailability test, subcutaneous injection to mice; format: in vivo
# Escherichia coli 078 [2] = experiment: PD50 test using mice; format: in vivo; design: PD50: unit not given beside the values; conditions: Escherichia coli 078
# Source text: (§1) This means that ⅓ of the amount of the compound 10 has the same effect as meropenem.
# (§2) Streptococcus pyrogenes A 77 and Escherichia coli 078 were selected as gram-positive and gram-negative strains, respectively.
# [3] = tested on: Streptococcus pyrogenes A 77; experiment: PD50 test using mice; format: in vivo; design: PD50: unit not given beside the values; conditions: Streptococcus pyrogenes A 77
# Source text: as §1, §2
# [4] = tested on: Enterobacter cloacae 1321E; experiment: Antibacterial activity test (agar dilution MIC); format: cell-based
# Description: (§3) Gram-positive Streptococcus and Staphylococcus and Gram-negative Escherichia coli, Pseudomonas, Salmonella, Klebsiella and Enterobacter were selected for the test. After the cells were diluted and cultured in agar, the compounds of the present invention were treated to obtain the minimum inhibitory concentration in the units of μg/ml.
# Enterobacter cloacae P99 = experiment: Antibacterial activity test (agar dilution MIC); format: cell-based
# Description: as §3
# Escherichia coli 078 [5] = experiment: Antibacterial activity test (agar dilution MIC); format: cell-based; conditions: Escherichia coli 078, agar
# Description: as §3
# Escherichia coli 1507E = experiment: Antibacterial activity test (agar dilution MIC); format: cell-based
# Description: as §3
# Escherichia coli DC0 = experiment: Antibacterial activity test (agar dilution MIC); format: cell-based
# Description: as §3
# Escherichia coli DC2 = experiment: Antibacterial activity test (agar dilution MIC); format: cell-based
# Description: as §3
# Escherichia coli TEM = experiment: Antibacterial activity test (agar dilution MIC); format: cell-based; conditions: Escherichia coli TEM, agar
# Description: as §3
# [6] = tested on: Klebsiella aerogenes 1522E; experiment: Antibacterial activity test (agar dilution MIC); format: cell-based
# Description: as §3
# Klebsiella oxytoca 1082E = experiment: Antibacterial activity test (agar dilution MIC); format: cell-based
# Description: as §3
# [7] = tested on: Pseudomonas aeruginosa 1592E; experiment: Antibacterial activity test (agar dilution MIC); format: cell-based
# Description: as §3
# [8] = tested on: Pseudomonas aeruginosa 1771; experiment: Antibacterial activity test (agar dilution MIC); format: cell-based; conditions: Pseudomonas aeruginosa 1771, agar
# Description: as §3
# [9] = tested on: Pseudomonas aeruginosa 9027; experiment: Antibacterial activity test (agar dilution MIC); format: cell-based; conditions: Pseudomonas aeruginosa 9027, agar
# Description: as §3
# Salmonella typhimurium = experiment: Antibacterial activity test (agar dilution MIC); format: cell-based
# Description: as §3
# [10] = tested on: Staphylococcus aureus 285; experiment: Antibacterial activity test (agar dilution MIC); format: cell-based; conditions: Staphylococcus aureus 285, agar
# Description: as §3
# [11] = tested on: Staphylococcus aureus 503; experiment: Antibacterial activity test (agar dilution MIC); format: cell-based; conditions: Staphylococcus aureus 503, agar
# Description: as §3
# [12] = tested on: Staphylococcus aureus SG511; experiment: Antibacterial activity test (agar dilution MIC); format: cell-based
# Description: as §3
# [13] = tested on: Streptococcus faecium MD8b; experiment: Antibacterial activity test (agar dilution MIC); format: cell-based
# Description: as §3
# [14] = tested on: Streptococcus pyogenes 308A; experiment: Antibacterial activity test (agar dilution MIC); format: cell-based
# Description: as §3
# [15] = tested on: Streptococcus pyogenes 77A; experiment: Antibacterial activity test (agar dilution MIC); format: cell-based
# Description: as §3
# [16] = target: DHP-I (renal dehydropeptidase-I) (Homo sapiens, UniProt P16444); experiment: in vitro; conditions: renal enzyme DHP-I
# Sequence of DHP-I (renal dehydropeptidase-I) (P16444 17-385): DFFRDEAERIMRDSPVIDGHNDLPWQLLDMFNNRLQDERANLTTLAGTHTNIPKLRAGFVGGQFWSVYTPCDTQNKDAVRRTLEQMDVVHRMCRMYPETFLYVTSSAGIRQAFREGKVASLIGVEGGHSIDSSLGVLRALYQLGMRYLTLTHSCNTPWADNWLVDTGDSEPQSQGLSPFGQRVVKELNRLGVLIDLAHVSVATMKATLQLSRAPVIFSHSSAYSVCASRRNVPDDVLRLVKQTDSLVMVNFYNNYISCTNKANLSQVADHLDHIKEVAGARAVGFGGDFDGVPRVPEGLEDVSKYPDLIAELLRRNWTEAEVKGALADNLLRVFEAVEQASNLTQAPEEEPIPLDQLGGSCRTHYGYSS
# [17] = tested on: Pseudomonas aeruginosa 1771M; experiment: Antibacterial activity test (agar dilution MIC); format: cell-based; conditions: Pseudomonas aeruginosa 1771M, agar
# Description: as §3
Compound,Minimum inhibitory concentration [4] [µg/mL],Minimum inhibitory concentration (Enterobacter cloacae P99) [µg/mL],Minimum inhibitory concentration (Escherichia coli 078 [5]) [µg/mL],Minimum inhibitory concentration (Escherichia coli 1507E) [µg/mL],Minimum inhibitory concentration (Escherichia coli DC0) [µg/mL],Minimum inhibitory concentration (Escherichia coli DC2) [µg/mL],Minimum inhibitory concentration (Escherichia coli TEM) [µg/mL],Minimum inhibitory concentration [6] [µg/mL],Minimum inhibitory concentration (Klebsiella oxytoca 1082E) [µg/mL],Minimum inhibitory concentration [7] [µg/mL],Minimum inhibitory concentration [8] [µg/mL],Minimum inhibitory concentration [9] [µg/mL],Minimum inhibitory concentration (Salmonella typhimurium) [µg/mL],Minimum inhibitory concentration [10] [µg/mL],Minimum inhibitory concentration [11] [µg/mL],Minimum inhibitory concentration [12] [µg/mL],Minimum inhibitory concentration [13] [µg/mL],Minimum inhibitory concentration [14] [µg/mL],Minimum inhibitory concentration [15] [µg/mL],other results
"C[C@@H](O)[C@H]1C(=O)N2C(C(=O)O)=C(S[C@@H]3CN[C@H](C(=O)N(C)C)C3)[C@H](C)[C@H]12 [meropenem, reference compound]",–,–,–,–,–,–,–,–,–,–,–,–,–,–,–,–,–,–,–,"Cmax [1]: 7600 ± 550 ng/mL; T1/2 [1]: 14.4 ± 13.2 min; Tmax [1]: 12.6 ± 2.4 min; AUC ([1]; mouse, in vivo, sc, AUC 0-2 hr): 3290 ± 290 ng·h/mL; PD50 (Escherichia coli 078 [2]): 1.24; PD50 [3]: 7.16"
C[C@@H](O)[C@H]1C(=O)N2C(C(=O)O)=C(S[C@@H]3CN[C@H](C(=O)NCCC(=O)NCCO)C3)[C@H](C)[C@H]12 [Compound 3],0.025,0.049,0.025,0.025,0.049,0.049,0.025,0.049,0.098,1.563,1.563,1.563,0.049,0.391,0.195,0.195,12.5,0.013,0.007,–
"C[C@@H](O)[C@H]1C(=O)N2C(C(=O)O)=C(SCCN=CN)C[C@H]12 [imipenem, reference compound]",–,–,–,–,–,–,–,–,–,–,–,–,–,–,–,–,–,–,–,half-life [16]: 30 min
C[C@@H](O)[C@H]1C(=O)N2C(C(=O)O)=C(S[C@@H]3CN[C@H](C(=O)NCCS(=O)(=O)NCCO)C3)[C@H](C)[C@H]12 [Compound 13],0.013,0.049,0.013,0.025,0.025,0.025,0.013,0.025,0.049,1.563,1.563,1.563,0.025,0.195,0.098,0.195,12.5,0.013,0.007,Minimum inhibitory concentration [17]: 0.391 µg/mL

# Reference: patent US6436921B1, “Carbapenem derivatives and a preparation method thereof” (Korea Institute of Science and Technology, priority 1997, dated 2002)
